The text below walks through data of PubChem BioAssay (NCI).

What all share (test): growth of human tumour cells (NCI), 48 h
In assay [1] the test system is HCC-2998 colon.
Assay [2] has as its system NCI-H460 lung.
Assay [3] has as its system RPMI-8226 leukemia.
Assay [4] relates to SF-295 CNS.
Assay [5] concerns NCI/ADR-RES ovarian.
The test system of assay [6] is UACC-62 melanoma.
The subject of assay [7] is U251 CNS.
The test system of assay [8] is NCI-H226 lung.
Assay [9] deals with SK-MEL-28 melanoma.
Assay [10] concerns PC-3 prostate.

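Test compounds were applied to cells in 96-well plates for 48 hours at 5 doses. GI50 = concentration required for 50% inhibition of growth. TGI: total growth inhibition.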

For the compound `C=C(CNCCO)[C@@H]1CC[C@]2(CO)CC[C@]3(C)[C@H](CC[C@@H]4[C@@]5(C)CCC(N)C(C)(C)[C@@H]5CC[C@]43C)[C@@H]12` (some centres undefined), the GI50 in assay [1] was 1.98 µM; in assay [2], 1.94 µM; in assay [3] it was 2.03 µM; in assay [4], 1.73 µM; in [5], 17 µM; in [6] it was 1.8 µM. The GI50 in assay [7] was 1.55 µM; in [8] it was 11 µM; in assay [9] it was 1.96 µM; in [10], 2.36 µM. Also, the TGI in assay [1] was 3.81 µM; in [2], 4.12 µM; in assay [3], 4.73 µM; in [4], 3.52 µM; in assay [5], 33.8 µM; in assay [6], 3.36 µM. Also, the TGI was determined as 2.89 µM in assay [7], 27.9 µM in [8], 3.6 µM in assay [9] and 11.2 µM in assay [10].

For `CC(=O)[O][Hg][c]1c(N)c(C)cc(C)c1F`, the GI50 in assay [1] is 2.28 µM; in assay [2], 1.74 µM; in assay [3] it was 1.81 µM; in assay [4], 7.92 µM; in [5], 3.48 µM; in assay [6], 1.5 µM. The GI50 was 0.672 µM in assay [7], 16.2 µM in [8], 1.37 µM in assay [9] and 2.03 µM in assay [10]. Besides, the TGI in [1] was 4.87 µM; in assay [2], 4.3 µM; in [3] it was 6 µM; in assay [4] it was 21.8 µM; in [5], 23.6 µM; in assay [6], 3.2 µM. Moreover, the TGI was 2.06 µM in [7], 44.5 µM in assay [8], 2.83 µM in assay [9] and 6.61 µM in assay [10].

In the case of `COc1c2ccoc2c(/C=C/C=O)c2oc(-c3ccccc3)cc(=O)c12`, the GI50 in assay [1] was 16.1 µM; in assay [2], 11.3 µM; in assay [3], 2.24 µM; in [4], 13.6 µM; in assay [5], 3.01 µM; in assay [6] it was 5.45 µM. Further, the GI50 is 3.06 µM in assay [7], 4.14 µM in assay [8], 2.73 µM in [9] and 3.23 µM in [10]. Besides, the TGI is 42 µM in [1]; 61.4 µM in assay [2]; 5.81 µM in assay [3]; 97.9 µM in assay [4]; greater than 100 µM in assay [5]; 22.7 µM in assay [6]. Besides, the TGI in assay [7] was 12.9 µM; in [8] it was 20.4 µM; in assay [9] it was 9.17 µM; in assay [10], greater than 100 µM.

As to `CN(C)CCCNC1=C(Cl)C(=O)c2ccccc2C1=O`, the GI50 is 1.96 µM in assay [1]; 8.61 µM in [2]; 4.25 µM in [3]; 7.23 µM in assay [4]; 7.93 µM in assay [5]; 1.7 µM in assay [6]. Further, the GI50 is 1.83 µM in assay [7], 5.38 µM in assay [8], 1.88 µM in assay [9] and 3.12 µM in assay [10]. Further, the TGI in assay [1] was found to be 3.45 µM; in assay [2], 25.2 µM; in assay [3] it was 21.4 µM; in assay [4], 21.4 µM; in [5] it was 31.8 µM; in assay [6] it was 3.19 µM. Besides, the TGI turned out to be 3.27 µM in assay [7], 10.6 µM in assay [8], 3.41 µM in assay [9] and 13.2 µM in assay [10].

For the compound `CCOc1ccccc1-n1c(CN2CCN(C(=O)COc3ccc(CNCCCCCCN4C5CCCC4CC(OC(=O)Nc4cc(C)ccc4OC)C5)cc3)CC2)nc2ccccc2c1=O` (centres undefined), the GI50 in assay [1] was 1.57 µM; in [2], 0.806 µM; in assay [3], 1.13 µM; in assay [4] it was 1.66 µM; in [5] it was 7.04 µM; in assay [6] it was 1.77 µM. Further, the GI50 in assay [7] was 0.61 µM; in assay [8] it was 1.88 µM; in assay [9], 1.81 µM; in [10], 1.59 µM. The TGI was 3.15 µM in assay [1]; 1.94 µM in assay [2]; 3.4 µM in [3]; 3.27 µM in assay [4]; 19.6 µM in [5]; 3.22 µM in [6]. In addition, the TGI in assay [7] came to 1.2 µM; in [8], 3.91 µM; in assay [9] it was 3.25 µM; in assay [10], 3.61 µM.

Take `Oc1ccc(Cl)cc1-c1cc(-c2ccccc2Cl)[nH]n1`: the GI50 is 2.86 µM in assay [1]; 3.47 µM in assay [2]; 3.15 µM in assay [3]; 8.71 µM in [4]; 8.55 µM in assay [5]; 5.29 µM in assay [6]. Also, the GI50 in assay [8] is 13.8 µM; in assay [9], greater than 100 µM; in assay [10] it was 3.02 µM. The TGI is 17.4 µM in assay [1]; greater than 100 µM in assay [2]; greater than 100 µM in [3]; greater than 100 µM in [4]; greater than 100 µM in assay [5]; greater than 100 µM in assay [6]. The TGI in [8], in assay [9] and in [10] was greater than 100 µM each time.

Take `Cc1cc2nc(C(Cl)Cl)nc(-c3ccc(Cl)cc3)n2n1`: the GI50 in [1] is 0.788 µM; in [2], 0.304 µM; in assay [3] it was 1.36 µM; in [4], 1.3 µM; in [5], 0.682 µM; in [7], 0.509 µM. Also, the GI50 in assay [8] was 3.28 µM; in [9] it was 1.63 µM; in assay [10] it was 1.33 µM. Besides, the TGI came out at 2.33 µM in [1]; 1.09 µM in assay [2]; 6.45 µM in assay [3]; 4.75 µM in assay [4]; 3.89 µM in assay [5]; 3.7 µM in assay [7]. The TGI in [8] is greater than 100 µM; in assay [9], 3.38 µM; in [10] it was 4.16 µM.

As for `COc1ccc2c(c1)C(=O)/C(=C/c1ccc(OCC(=O)Nc3nccs3)cc1)O2`, the GI50 in [1] is 15.2 µM; in assay [2], 15.5 µM; in [3], 0.439 µM; in assay [5] it was 27.3 µM; in [6], 9.71 µM; in [7], 0.598 µM. In addition, the GI50 in assay [8] is 12.8 µM; in assay [9] it was 12.7 µM; in assay [10], 0.264 µM. Besides, the TGI was 31.7 µM in [1]; 34.4 µM in assay [2]; 4.56 µM in [3]; greater than 100 µM in assay [5]; 23.2 µM in assay [6]; 22.4 µM in assay [7]. Also, the values for the TGI in [8], in assay [9] and in assay [10] were 34.8 µM, 26.3 µM and 2.17 µM, respectively.
